Measurements: patent US20240336609A1, “PYRIDAZINONE COMPOUNDS AND USES THEREOF” (Edgewise Therapeutics, Inc., priority 2021, published 2024)

What was measured:
[1] = biological target: T1, skeletal myofibrils (myosin ATPase activity) (Oryctolagus cuniculus, UniProt Q28641); assay: Skeletal Myofibril ATPase Assay (PK/LDH-coupled, NADH absorbance at 340 nm); type: biochemical; conditions: Rabbit Psoas myofibrils 0.25 mg/mL, ATP 0.05 mM, 1% DMSO vehicle = 100% activity
T1 construct: Rabbit Psoas Prep 11 (0.25 mg/mL)
Experimental: Overview: Myosin ATPase activity was assessed by using a coupled reaction system, in which ADP generated by the myosin ATPase function was coupled to the disappearance of NADH through the pyruvate kinase/lactate dehydrogenase (PK-LDH) system. Myosin ATPase activity produces ADP, which was used as a substrate for PK to produce pyruvate and regenerate ATP. The pyruvate was then used as a substrate by LDH to oxidize NADH to NAD+. The rate of the reaction was monitored through the time-dependent disappearance of NADH using absorbance at 340 nm. Inhibition of ATPase activity by the assayed compounds was indicated by a reduced rate of NADH loss, relative to vehicle-treated controls, over the experimental time window. To assess the selectivity of the assayed compounds for skeletal myofibrils, the compounds were counter-screened in cardiac myofibrils.
Materials: The following stock solutions and reagents were used in the Skeletal Myofibril ATPase Assay:
Stock Solutions of pCa buffer. Combine PIPES, CaCl2), and EGTA solutions with 70 mL of water. Adjust pH to 7.0 and bring final volume to 100 mL.
Buffer A & Buffer B. Butters were stored on ice until use.
Skeletal Myofibril ATPase Assay Procedure: BSA, ATP, NADH, PEP, and DTT solutions were thawed at room temperature, then transferred to ice. Pellet-frozen myofibrils (approximately twice the required volume) were transferred into a sufficiently large tube and capped. Myofibrils were thawed by rolling in a water bath for approximately 15 min at room temperature and cooled on ice. Buffers A and B were prepared by adjusting volumes as necessary for required number of wells and stored on ice. 0.5 μL of the compounds to be assayed were added into wells of a 384-well plate. Buffers A and B were mixed by inversion immediately prior to use, then 25 μL of each was dispensed using a Multidrop dispenser (Buffer A first, then Buffer B). The absorbance within the wells was measured at 340 nm, using a kinetic protocol in which the wells are read every 1.5-2 min for 1 h. The reaction rate was qualitatively assessed by subtracting the minimum absorbance value from the maximum value for each well, using either the SoftMax Pro plate reader software or a spreadsheet program such as Excel. Using GraphPad Prism 8.0, the data was normalized, with 100% activity defined as the absorbance change in the 1% DMSO vehicle wells and 0% assigned to no change in absorbance over the course of the experiment. The normalized data were fit to a variable-slope four-parameter logistic model, constraining the bottom to be 0 or greater. Compounds of Table 1 to 3 were tested and results of the assay appear in Table 4 herein. A=IC50 is less than or equal to 10 μM; B=IC50 is greater than 10 μM and less than 100 μM; C=IC50 is greater than 100 μM.

[2] = system: embryos from zebrafish model of DMD; conditions: cited from earlier work

Row | Compound | IC50 [1] [µM] | protection of muscles from pathological muscle derangement [2]
1 | 2-(5-(5-(4-chloropyridin-2-yl)- 1,2,4-oxadiazol-3-yl)-2-oxopyri- din-1(2H)-yl)-N-ethylacetamide [Compound 51] | 10 to 100 | –
2 | 6-(3-(3-chlorophenyl)-1,2,4- thiadiazol-5-yl)-2-((3-(pyridin- 3-yl)-1,2,4-oxadiazol-5-yl)- methyl)pyridazin-3(2H)-one [Compound 22] | ≥ 100 | –
3 | 6-(5-(3-chlorophenyl)-1,2,4- thiadiazol-3-yl)-2-((3-methyl- isoxazol-5-yl)methyl)pyridazin- 3(2H)-one [Compound 27] | ≤ 10 | –
4 | 6-(5-(5-chloropyridin-3-yl)- 1,2,4-thiadiazol-3-yl)-2-((3- methylisoxazol-5-yl)methyl)- pyridazin-3(2H)-one [Compound 28] | ≥ 100 | –
5 | Cc1ccc(S(=O)(=O)NCc2ccccc2)cc1 [N-benzyl-p-tolyl-sulfonamide (BTS), N-benzyl-p-tolyl-sulfonamide] | – | protect muscles from pathological muscle derangement
6 | N-ethyl-2-(5-(5-morpholino- 1,2,4-thiadiazol-3-yl)-2-oxo- pyridin-1(2H)-yl)acetamide [Compound 11] | 10 to 100 | –
7 | N-ethyl-2-(6-oxo-3-(5-(5- (trifluoromethyl)pyridin-3-yl)- 1,2,4-thiadiazol-3-yl)pyridazin- 1(6H)-yl)acetamide [Compound 19] | ≥ 100 | –
